In US20250057819A1, “DRUG COMBINATIONS FOR INHIBITING CORONAVIRUS REPLICATION” (priority 2021, published 2025):
Counter-ions that a name gives are not always drawn. Like-named read-outs stand apart in the source and are kept apart here.

Experiments:
[1] = Cell viability assay (MTT) in HRT-18 cells; conditions: human, CC50 (μM)
rHCoVs-OC43 = test: organism not typed; format: cell-based
[2] = Cell viability assay (MTT) in Calu3 cells; format: cell-based, Human; conditions: human, Calu3 cells, Calu3 (C), read-out: SARS-CoV-2 CC50
Procedure: (§1) Cell viability was monitored by a mitochondrial activity test using methyl-thiazolyl-tetrazolium (MTT, Sigma). After 48 hours of drug treatment, cells were treated with 1 mg/ml of MTT during 3 hours at 37° C. The supernatants were removed and the MTT crystals were dissolved using DMSO and a shaker. The absorbance was read with a Tecan Spark at 570 nm with reference at 650 nm.
(§2) Only the most promising molecules or those studied in synergy were tested in Calu3 cells.

[3] = Cell viability assay (MTT) in Huh7.5 cells; format: cell-based, human; conditions: human, Huh7.5 cells, Huh7.5 (B), read-out: SARS-CoV-2 CC50
Procedure: as §1, §2

SARS-CoV-2 [4] = test: microbe, parasite or virus in culture; format: cell-based; conditions: for EC50: Severe acute respiratory syndrome coronavirus 2, Huh7.5, 48 h, read-out: SARS-CoV-2 EC50
SARS-CoV-2 [5] = test: Drug tests in SARS-CoV-2 model, Calu3 cells, viral titration by plaque assay in Vero E6; conditions: read-out: SARS-CoV-2 EC50; Calu3 (C), MOI 0.05, 48 h treatment
HRT-18 cells = test: Cell viability assay (MTT) in HRT-18 cells
[6] = drug alone, HRT-18 cells, 48 h treatment, MTT
[7] = drug alone, HRT-18 cells, MOI 0.025, 48 h treatment, decrease of Rluc, read-out: EC50
[8] = drug 2 alone (fast synergy screening table)
[9] = 48 h, drug 2 alone (fast synergy screening table), read-out: IC50
[10] = drug 2 alone (fast synergy screening table), read-out: IC50

Compound: O=C(Nc1ccc(Oc2ccc(Cl)cc2)c(Cl)c1)c1cc(I)cc(I)c1O [Rafoxanide]
- CC50 at 48 h [1, 6]: > 10 µM
- EC50 (rHCoVs-OC43; [7]): 6900 nM

Compound: CCC(CC)COC(=O)[C@H](C)N[P@](=O)(OC[C@H]1O[C@@](C#N)(c2ccc3c(N)ncnn23)[C@H](O)[C@@H]1O)Oc1ccccc1 [Remdesivir]
- CC50 at 48 h [2]: > 10000 nM
- CC50 at 48 h [1, 8]: 2.5 µM
- CC50 at 48 h [1, 6]: 2.5 µM
- CC50 at 48 h [3]: > 10000 nM
- EC50 (SARS-CoV-2 [4]): ≤ 1 nM
- EC50 (SARS-CoV-2 [5]): 4 nM
- IC50 (rHCoVs-OC43; [9]): 34 nM
- IC50 (rHCoVs-OC43; [10]): 34 nM
- EC50 (rHCoVs-OC43; [7]): 34 nM

Compound: NC(=O)c1ncn([C@@H]2O[C@H](CO)[C@@H](O)[C@H]2O)n1 [Ribavirin]
- CC50 at 48 h [1, 8]: > 10 µM
- CC50 at 48 h [1, 6]: > 10 µM
- IC50 (rHCoVs-OC43): 1000 nM
- IC50 (rHCoVs-OC43; 48 h): 1000 nM
- EC50 (rHCoVs-OC43; [7]): 1000 nM

Compound: Cc1cc(/C=C/C#N)cc(C)c1Nc1ccnc(Nc2ccc(C#N)cc2)n1 [Rilpivirine]
- CC50 at 48 h [1, 6]: 10 µM
- EC50 (rHCoVs-OC43; [7]): > 10000 nM

Compound: C=CC[C@@H]1/C=C(\C)C[C@H](C)C[C@H](OC)[C@H]2O[C@@](O)(C(=O)C(=O)N3CCCC[C@H]3C(=O)O[C@H](/C(C)=C/[C@@H]3CC[C@@H](O)[C@H](OC)C3)[C@H](C)[C@@H](O)CC1=O)[C@H](C)C[C@@H]2OC [Tacrolimus hydrate]
- CC50 at 48 h [1, 6]: > 10 µM
- EC50 (rHCoVs-OC43; [7]): 3300 nM

Compound: CCN(CC)CCOc1ccc2c(c1)C(=O)c1cc(OCCN(CC)CC)ccc1-2 [Tilorone dihydrochloride]
- CC50 at 48 h [2]: > 10000 nM
- CC50 at 48 h [1, 6]: > 10 µM
- CC50 at 48 h [3]: > 10000 nM
- EC50 (SARS-CoV-2 [4]): 500 nM
- EC50 (SARS-CoV-2 [5]): 70 nM
- EC50 (rHCoVs-OC43; [7]): 14 nM

Compound: Clc1ccc(C(Cn2ccnc2)OCc2ccsc2Cl)c(Cl)c1 (centres unmarked) [Tioconazole]
- CC50 at 48 h [1, 6]: > 10 µM
- EC50 (rHCoVs-OC43; HRT-18, 48 h): 4100 nM

Compound: CN(C)CCOc1ccc(/C(=C(/CCCl)c2ccccc2)c2ccccc2)cc1 [Toremifene Citrate]
- CC50 at 48 h [1, 8]: > 10 µM
- CC50 at 48 h [1, 6]: > 10 µM
- IC50 (rHCoVs-OC43; 48 h): 2600 nM
- EC50 (rHCoVs-OC43; [7]): 2600 nM

Compound: CN1CCN(CCCN2c3ccccc3Sc3ccc(C(F)(F)F)cc32)CC1 [Trifluoperazine dihydrochloride]
- CC50 at 48 h [1, 8]: > 10 µM
- CC50 at 48 h [1, 6]: > 10 µM
- CC50 at 48 h [3]: > 10000 nM
- EC50 (SARS-CoV-2 [4]): > 10000 nM
- inhibitory effect on viral replication (SARS-CoV-2 [4]; drug alone, SARS-CoV-2, words): did not show any significant inhibition of viral replication
- IC50 (rHCoVs-OC43; [9]): 2900 nM
- IC50 (rHCoVs-OC43; [10]): 2900 nM
- EC50 (rHCoVs-OC43; [7]): 2900 nM

Compound: Cc1ccc(Sc2ccccc2N2CCNCC2)c(C)c1 [Vortioxetine hydrobromide]
- CC50 at 48 h [1, 6]: > 10 µM
- EC50 (rHCoVs-OC43; [7]): 2400 nM

Compound: Cc1ccc(Sc2ccccc2N2CCNCC2)c(C)c1 [Vortioxetine]
- CC50 at 48 h [1, 8]: > 10 µM
- IC50 (rHCoVs-OC43; [9]): 2400 nM
- IC50 (rHCoVs-OC43; [10]): 2400 nM

Compound: CN(C)CCCN1c2ccccc2Sc2ccc(Cl)cc21 [chlorpromazine]
- CC50 at 48 h [1, 6]: > 10 µM
- EC50 (rHCoVs-OC43; [7]): 5100 nM

Compound: Benproperine phosphate
- CC50 (HRT-18 cells; [6]): > 10000 nM
- EC50 (rHCoVs-OC43; [7]): 5600 nM

Compound: Monesin sodium sulfate
- CC50 (HRT-18 cells; [8]): 900 nM
- CC50 (HRT-18 cells; [6]): 900 nM
- IC50 (rHCoVs-OC43; [10]): 29 nM
- EC50 (rHCoVs-OC43; [7]): 29 nM
